Laboratory results from patent publication US9440941B2, “Substituted chroman-6-yloxy-cycloalkanes and their use as pharmaceuticals” (SANOFI, priority 2013, dated 2016).
Structures can show the parent of a compound that is named as a salt.

Experiments:
human NCX1 [1] = target: T1, human NCX1 (Homo sapiens, UniProt P32418); assay: Inhibition of Ca2+ efflux out of cells (NCX1 forward mode), FLIPR calcium assay; assay type: cell-based; conditions: CHO cells stably expressing human NCX1; Ca2+ efflux after Ionomycin; read-out: NCX1fw IC50 (inhibition of NCX1 in forward mode)
T1 construct: expressed in transfected cells
Text: The sodium/calcium exchanger NCX1 can transport calcium ions and sodium ions through the cell membrane. The transport is an exchange of Ca^2+ and Na^+ in two directions depending on membrane potential and ion gradients. At the first direction, named “forward mode” or “calcium export mode”, Ca^2+ is transported out of the cell and Na^+ is transported into the cell. At the other direction, named “reverse mode” or “calcium import mode”, the transport directions are vice versa. The effect of the compounds of the invention on NCX1 was determined in CHO cells stably expressing human NCX1 (gene symbol SLC8A1; cf. WO 2009/115238). The assay is based on the monitoring of intracellular Ca^2+ concentrations using a calcium-sensitive fluorescence dye which is detected by means of a FLIPR device (Fluorimetric Imaging Plate Reader, Molecular Devices).
Assay Technology—Forward Mode
The assay is based on the monitoring of intracellular Ca^2+ concentrations using the PBX Calcium Assay Kit from BD (Becton, Dickinson and Company) with calcium indicator dye 51-9000177BKa (BD, 640177). CHO cells expressing NCX1 were loaded with the dye, and after a preincubation period with the test compound, lonomycin (Calbiochem, 407950) was added. lonomycin is an ionophor for Ca^2+ ions mediating an increase of intracellular Ca^2+ ions. Consequently, intracellular Ca^2+ ions are exchanged against extracellular Na^+ ions (Ca^2+ efflux, forward mode). The decrease of intracellular Ca^2+ ions was detected by measuring the fluorescence of the calcium indicator dye at a wavelength of 520 nm by a FLIPR device.
Briefly, similarly as for the reverse mode, for the forward mode transport assay 18000 cells per well were seeded into a 96 well microplate (Corning COSTAR 3904) and incubated overnight in culture medium (cf. above). A total volume of 100 μl medium per well was used. For the preparation of the FLIPR assay, the culture medium was removed from the plates and 100 μl of assay buffer (133.8 mM NaCl (Sigma, S5886); 4.7 mM KCl (Sigma, P3911); 1.25 mM MgCl2 (Merck, 1.05833.0250); 3.5 mM CaCl2 (Merck, 1.02083.0250); 5 mM glucose (Sigma, G7021); 10 mM Hepes (Sigma, H4034); pH 7.4)) were added to each well in a washing step. Assay buffer was removed, and 100 μl of a solution of the test compound in assay buffer in different concentrations were added into the wells. Further, 100 μl of dye solution (0.09% (v/v) calcium indicator dye, 9.1% (v/v) signal enhancer (from PBX Calcium Assay Kit); in assay buffer) were added into each well. The plates were incubated in the dark at room temperature for 60 min. Meanwhile a 10 μM solution of lonomycin in assay buffer (additionally containing 0.05% fetal calf serum (cf. above); 4° C.) was prepared and stored in the wells of a 96 well microplate (96 well microplate, polypropylene, U-shape (Greiner Bio-One, 650201)). The fluorescence monitoring was performed at 60 measuring points with measurement intervals of 2 sec. After the fifth measuring point, 50 μl of the lonomycin solution were added to each well of the assay plate to give a final lonomycin concentration of 2 μM. For the determination of the IC50 values the minimal fluorescence value was subtracted from the maximal fluorescence value for the fifteenth to fifty-fifth measuring points. The calculation of the IC50 values via the percentage inhibitions of Ca^2+ efflux out of cells (forward mode) effected by the test compound was performed in Biost@t Speed 2.0. “NCX1fw IC50” in Table 2 means the IC50 value (in μM (micromol/liter)) for inhibition of NCX1 in forward mode.

human NCX1 [2] = target: T1, human NCX1; assay: Inhibition of Ca2+ influx into cells (NCX1 reverse mode), FLIPR Fluo-4 assay; assay type: cell-based; conditions: inhibition of NCX1 in reverse mode (Ca2+ influx into cells); read-out: NCX1rv IC50
How it was run: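 Ca2+ influx via reverse-mode exchange was evoked with gramicidin (20 µM final) after 45 min compound exposure at 16 °C in stably transfected CHO cells. Fluo-4 signal (520 nm) was followed on FLIPR at 2 s intervals. Max–min fluorescence gave percentage inhibition, from which IC50 was calculated.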

Compound | IC50 (human NCX1 [1]) | IC50 (human NCX1 [2])
Cc1ccccc1C1CCc2cc(O[C@H]3CC[C@@H](C(=O)NCCO)CC3)ccc2O1 (single isomer, unassigned) [Example 269, cis-4-(2-o-tolyl-chroman-6-yloxy)-cyclohexanecarboxylic acid (2-hydroxy-ethyl)-amide] | 3100 nM | 400 nM
Cc1ccccc1C1CCc2cc(O[C@H]3CC[C@@H](C(=O)NCCO)CC3)ccc2O1 (single isomer, unassigned) [Example 270, cis-4-(2-o-tolyl-chroman-6-yloxy)-cyclohexanecarboxylic acid (2-hydroxy-ethyl)-amide] | 1000 nM | 100 nM
Cc1ccccc1[C@H]1CCc2cc(O[C@H]3CC[C@H](C(=O)NCCO)CC3)ccc2O1 [Example 267, trans-4-((R)-2-o-tolyl-chroman-6-yloxy)-cyclohexanecarboxylic acid (2-hydroxy-ethyl)-amide] | 4400 nM | 200 nM
CCn1nccc1CNC(=O)C1CCC(Oc2cc3c(cc2C)OC(c2ccccc2C)CC3)CC1 (stereo not shown) [compound 290] |  | 1500 nM
O=C(NCCO)C1CCC(Oc2ccc3c(c2Cl)CCC(c2ccccc2)O3)CC1 (stereo not shown) [compound 291] |  | 1100 nM
O=C(NCc1ccno1)C1CCC(Oc2ccc3c(c2Cl)CCC(c2ccccc2)O3)CC1 (stereo not shown) [compound 292] |  | 1900 nM
CCn1nccc1CNC(=O)C1CCC(Oc2ccc3c(c2Cl)CCC(c2ccccc2)O3)CC1 (stereo not shown) [compound 293] |  | 4700 nM
COc1cccc(C2CCc3cc(OC4CCC(C(=O)NCCO)CC4)ccc3O2)c1F (stereo not shown) [compound 294] |  | 1300 nM
COc1cccc(C2CCc3cc(OC4CCC(C(=O)NCc5ccno5)CC4)ccc3O2)c1F (stereo not shown) [compound 295] |  | 1100 nM
CCn1nccc1CNC(=O)C1CCC(Oc2ccc3c(c2)CCC(c2cccc(OC)c2F)O3)CC1 (stereo not shown) [compound 296] |  | 900 nM
CCn1nccc1CNC(=O)C1CCC(Oc2ccc3c(c2)CC(C)C(c2ccccc2)O3)CC1 (stereo not shown) [compound 297] |  | 500 nM
CC1Cc2cc(OC3CCC(C(=O)NCc4ccno4)CC3)ccc2OC1c1ccccc1 (stereo not shown) [compound 298] |  | 1400 nM
CC1Cc2cc(OC3CCC(C(=O)NCCO)CC3)ccc2OC1c1ccccc1 (stereo not shown) [compound 299] |  | 1900 nM
CCn1nccc1CNC(=O)C1CCC(Oc2ccc3c(c2)CCC(c2cccc(F)c2OC)O3)CC1 (stereo not shown) [compound 300] |  | 400 nM
COc1c(F)cccc1C1CCc2cc(OC3CCC(C(=O)NCc4ccno4)CC3)ccc2O1 (stereo not shown) [compound 301] |  | 200 nM
COc1c(F)cccc1C1CCc2cc(OC3CCC(C(=O)NCCO)CC3)ccc2O1 (stereo not shown) [compound 302] |  | 400 nM
N[C@@H]1CC[C@@H](Oc2ccc3c(c2)CCC(c2ccccc2)O3)C1 (stereo partly shown) [compound 304, hydrochloride] |  | 600 nM

Compound | IC50 (human NCX1 [1]) | IC50 (human NCX1 [2])
NCC1CCC(Oc2ccc3c(c2)CCC(c2ccccc2)O3)C1 (stereo not shown) [compound 305, hydrochloride] |  | 1500 nM
N-(1,3-Dimethylbutyl)-4-(2-phenylchroman-6-yloxy)-cyclohexylamine [compound 141] |  | 1000 nM
N-(2-Ethylsulfanylethyl)-4-(2-phenylchroman-6-yloxy)-cyclohexylamine [compound 131] |  | 600 nM
N-(2-Hydroxy-1,1-dimethyl-ethyl)-4-(2-phenylchroman-6-yloxy)-cyclohexanecarboxamide [compound 151] |  | 1300 nM
N-(2-Methoxyethyl)-4-(2-phenylchroman-6-yloxy)-cyclohexylamine [compound 132] |  | 700 nM
N-(2-tert-Butoxyethyl)-4-(2-phenylchroman-6-yloxy)-cyclohexylamine [compound 135] |  | 800 nM
N-(3,3-Dimethylbutyl)-4-(2-phenylchroman-6-yloxy)-cyclohexylamine [compound 152] |  | 1400 nM
N-(3-Hydroxypropyl)-4-(2-phenylchroman-6-yloxy)-cyclohexanecarboxamide [compound 150] |  | 900 nM
N-(3-Methylbutyl)-4-(2-phenylchroman-6-yloxy)-cyclohexylamine [compound 130] |  | 800 nM
N-((S)-2-Methoxy-1-methyl-ethyl)-4-(2-phenylchroman-6-yloxy)-cyclohexylamine [compound 140] |  | 1400 nM
N-But-3-enyl-4-(2-phenylchroman-6-yloxy)-cyclohexylamine [compound 148] |  | 900 nM
N-Cyclobutyl-4-(2-phenylchroman-6-yloxy)-cyclohexylamine [compound 142] |  | 600 nM
N-Cyclopentyl-4-(2-phenylchroman-6-yloxy)-cyclohexylamine [compound 143] |  | 800 nM
N-Pentyl-4-(2-phenylchroman-6-yloxy)-cyclohexylamine [compound 144] |  | 600 nM
N-[1-(Methoxymethyl)propyl]-4-(2-phenylchroman-6-yloxy)-cyclohexylamine [compound 133] |  | 1000 nM
N-[2-(1,1-Dioxo-thiomorpholin-4-yl)ethyl]-4-(2-phenylchroman-6-yloxy)-cyclohexylamine [compound 138] |  | 600 nM
N-[2-(1-Isopropylpiperidin-4-yl)ethyl]-4-(2-phenylchroman-6-yloxy)-cyclohexylamine [compound 136] |  | 1800 nM
